Among the data in paper PMC12040169 (PLOS Biology, 2025) are viability values, retold here.

This data set in a line: in vitro. The following applies: human, hela cells, % viability.

For `CCc1nc2c(OCC3CCCCC3)cccn2c1N(C=O)Cc1ccc(OC)cc1` [CBK147811], the viability at 28.5 h, 10 µM came out at 100%.

Regarding `C=CCOc1cccn2c(N(C=O)Cc3ccccc3)c(CC)nc12` [CBK147827], the viability at 28.5 h, 10 µM worked out at 92.2%.

Turning to `CCCOc1cccn2c(N(CC(=O)N(C)C)C(C)=O)c(CC)nc12` [CBK147850], the viability at 28.5 h, 10 µM amounted to 102%.

For `CCOC(=O)C(=O)N(C)c1c(CC)nc2c(OCc3ccccc3)cccn12` [CBK147879], the viability at 28.5 h, 10 µM amounted to 86.8%.

Consider `Cc1cccnc1C(NC(=O)C1CCN(CCOc2ccccc2)CC1)c1ccc(F)cc1` (stereo not shown) [CBK147892], for which the viability at 28.5 h, 10 µM turned out to be 91.8%.

For the molecule `Cc1cccnc1C(NC(=O)C1CCN(CCCN2C(=O)CC3CCCCC3C2=O)CC1)c1ccc(F)cc1` (stereo not shown) [CBK147910], the viability at 28.5 h, 10 µM is 91.2%.

Consider `COc1ccccc1C(NC(=O)C1CCN(CCn2cnc3c2c(=O)n(C)c(=O)n3C)CC1)c1ccccn1` (stereo not shown) [CBK147939], for which the viability at 28.5 h, 10 µM is 91.7%.

Consider `COc1ccccc1C(NC(=O)C1CCN(CCCN2C(=O)CC3CCCCC3C2=O)CC1)c1ccccn1` (stereo not shown) [CBK147940], for which the viability at 28.5 h, 10 µM is 95%.

On to `COc1cc(CN2CCC(C(=O)NC(c3ccc(Cl)cc3)c3ccsc3)CC2)cc(OC)c1` (stereo not shown) [CBK147962], for which the viability at 28.5 h, 10 µM was determined as 95.3%.

Take `O=C(NC(c1ccc(Cl)cc1)c1ccsc1)C1CCN(CCCN2C(=O)CC3CCCCC3C2=O)CC1` (stereo not shown) [CBK147974]: the viability at 28.5 h, 10 µM was found to be 85.3%.

With `Cc1ccccc1C(NC(=O)C1CCN(C/C=C/c2ccccc2)CC1)c1ncccc1C` (stereo not shown) [CBK147980], the viability at 28.5 h, 10 µM was 102%.

With `O=C(NC(c1ccc(-c2ccccc2)cc1)c1cnccn1)C1CCN(CCc2ccc(F)cc2)CC1` (stereo not shown) [CBK147981], the viability at 28.5 h, 10 µM is 92.6%.

For `Cc1ccc(C(NC(=O)C2CCN(Cc3ccc(Cl)cc3)CC2)c2ccccn2)cc1` (stereo not shown) [CBK148007], the viability at 28.5 h, 10 µM is 103%.

Turning to `O=C(NC(c1ccc(Cl)cc1)c1cnccn1)C1CCN(Cc2ccc(Oc3ccccc3)cc2)CC1` (stereo not shown) [CBK148023], the viability at 28.5 h, 10 µM amounted to 108%.

Consider `COc1ccc(C(NC(=O)C2CCN(Cc3c[nH]c4ccccc34)CC2)c2ccccn2)cc1` (stereo not shown) [CBK148033], for which the viability at 28.5 h, 10 µM was determined as 121%.

For the molecule `CC(NC(=O)C1CCN(Cc2nccs2)CC1)c1ccc(F)cc1` (stereo not shown) [CBK148056], the viability at 28.5 h, 10 µM was 102%.

Consider `COc1cc(OC)nc(C(NC(=O)C2CCN(Cc3ccccc3F)CC2)c2ccc(Cl)cc2)n1` (stereo not shown) [CBK148152], for which the viability at 28.5 h, 10 µM amounted to 98%.

With `Cc1cccnc1C(NC(=O)C1CCN(Cc2cccn2C)CC1)c1ccc(Cl)cc1` (stereo not shown) [CBK148174], the viability at 28.5 h, 10 µM came out at 110%.

Consider `COc1cc(OC)nc(C(NC(=O)C2CCN(Cc3cn(C)c4ccccc34)CC2)c2ccc(F)cc2)n1` (stereo not shown) [CBK148185], for which the viability at 28.5 h, 10 µM stood at 90.7%.

On to `Cc1cccnc1C(NC(=O)C1CCN(C/C=C/c2ccco2)CC1)c1ccc(Cl)cc1` (stereo not shown) [CBK148201], for which the viability at 28.5 h, 10 µM amounted to 90%.

Take `COc1cc(OC)nc(C(NC(=O)C2CCN(Cc3ccc(N(C)C)cc3)CC2)c2ccc(F)cc2)n1` (stereo not shown) [CBK148204]: the viability at 28.5 h, 10 µM was found to be 88.9%.

Turning to `COc1cc(OC)nc(C(NC(=O)C2CCN(Cc3nccs3)CC2)c2ccc(Cl)cc2)n1` (stereo not shown) [CBK148217], the viability at 28.5 h, 10 µM was found to be 85.8%.

Consider `Cc1cccnc1C(NC(=O)C1CCN(Cc2ccoc2)CC1)c1ccc(Cl)cc1` (stereo not shown) [CBK148227], for which the viability at 28.5 h, 10 µM was 102%.

In the case of `O=C(NC(c1ccccc1)c1ccco1)C1CCN(CCc2c[nH]c3ccccc23)CC1` (stereo not shown) [CBK148290], the viability at 28.5 h, 10 µM came out at 100%.

On to `O=C(NC(c1ccccc1)c1ccco1)C1CCN(Cc2cccc(Cl)c2)CC1` (stereo not shown) [CBK148295], for which the viability at 28.5 h, 10 µM was 103%.

Turning to `COc1ccc(C(NC(=O)C2CCN(CCn3cnc4c3c(=O)n(C)c(=O)n4C)CC2)c2ccco2)cc1` (stereo not shown) [CBK148308], the viability at 28.5 h, 10 µM turned out to be 85.8%.

For `COc1ccc(C(NC(=O)C2CCN(CCOc3ccc(Br)cc3)CC2)c2ccco2)cc1` (stereo not shown) [CBK148311], the viability at 28.5 h, 10 µM stood at 95.8%.

`O=C(NC(c1ccc2ccccc2n1)c1cccs1)C1CCNCC1` (stereo not shown) [CBK148331]: the viability at 28.5 h, 10 µM is 98.9%.

Regarding `CN(C(=O)C1CCN(Cc2cccc(C(F)(F)F)c2)CC1)C(c1ccc(F)cc1)c1ccccn1` (stereo not shown) [CBK148409], the viability at 28.5 h, 10 µM stood at 95.7%.

For the molecule `COc1cccc(OC)c1OCCN1CCC(C(=O)NC(c2ccccc2)c2ccccn2)CC1` (stereo not shown) [CBK148419], the viability at 28.5 h, 10 µM came out at 96.3%.

`O=C(CN1CCC(C(=O)NC(c2ccccc2)c2ccsc2)CC1)c1ccc(F)cc1` (stereo not shown) [CBK148432]: the viability at 28.5 h, 10 µM was determined as 86.9%.

As for `O=C(NC(c1ccccc1)c1ccsc1)C1CCN(CCc2ccccc2)CC1` (stereo not shown) [CBK148433], the viability at 28.5 h, 10 µM was 98.1%.

With `O=C(NC(c1ccccc1)c1ccsc1)C1CCN(C/C=C/c2ccccc2)CC1` (stereo not shown) [CBK148449], the viability at 28.5 h, 10 µM came out at 89.4%.

Turning to `O=C(NC(c1cccnc1)c1ccc2c(c1)OCO2)C1CCN(CCc2cccs2)CC1` (stereo not shown) [CBK148503], the viability at 28.5 h, 10 µM turned out to be 105%.

On to `COc1cccc(C(NC(=O)C2CCN(Cc3cccs3)CC2)c2cnccn2)c1` (stereo not shown) [CBK148572], for which the viability at 28.5 h, 10 µM worked out at 106%.

In the case of `CC(NC(=O)C1CCN(Cc2ccc(Oc3ccccc3)cc2)CC1)c1ccccc1` (stereo not shown) [CBK148618], the viability at 28.5 h, 10 µM came out at 107%.

`CC(NC(=O)C1CCN(CCn2cnc3c2c(=O)n(C)c(=O)n3C)CC1)c1ccccc1` (stereo not shown) [CBK148624]: the viability at 28.5 h, 10 µM came out at 99.4%.

On to `COc1cccc(CCN2CCC(C(=O)NC(C)c3cccc4ccccc34)CC2)c1` (stereo not shown) [CBK148650], for which the viability at 28.5 h, 10 µM turned out to be 93.3%.

For the molecule `CC(NC(=O)C1CCN(CCCN(C)S(C)(=O)=O)CC1)c1cccc2ccccc12` (stereo not shown) [CBK148651], the viability at 28.5 h, 10 µM is 104%.

Regarding `CC(NC(=O)C1CCN(Cc2ccccn2)CC1)c1cccc2ccccc12` (stereo not shown) [CBK148662], the viability at 28.5 h, 10 µM was 98.2%.

Take `COc1ccc(OC)c(C(C)NC(=O)C2CCN(Cc3cccc(C(F)(F)F)c3)CC2)c1` (stereo not shown) [CBK148764]: the viability at 28.5 h, 10 µM turned out to be 95.7%.

Turning to `C=CCN1CCC(C(=O)NC(C)c2ccc(OC)c(OC)c2)CC1` (stereo not shown) [CBK148924], the viability at 28.5 h, 10 µM stood at 91.1%.

As for `Cc1cc(Cl)ccc1CNC(=O)c1ccc2[nH]ccc2c1` [CBK149048], the viability at 28.5 h, 10 µM was 81.7%.

For `O=C(NCc1cccs1)c1ccc2[nH]ccc2c1` [CBK149060], the viability at 28.5 h, 10 µM was determined as 83.3%.

Take `CCN(CC)C(=O)c1ccc2[nH]ccc2c1` [CBK149072]: the viability at 28.5 h, 10 µM is 97.1%.

With `O=C(c1ccc2[nH]ccc2c1)N1CCCC1` [CBK149074], the viability at 28.5 h, 10 µM was 106%.

`O=C(NCc1nc2ccccc2[nH]1)c1ccc2[nH]ccc2c1` [CBK149079]: the viability at 28.5 h, 10 µM stood at 89%.

As to `NC(=O)CCNC(=O)c1ccc2[nH]ccc2c1` [CBK149082], the viability at 28.5 h, 10 µM is 102%.

Consider `COc1cccc2cc(C(=O)N3CCN(C4CCN(C)CC4)CC3)oc12` [CBK149086], for which the viability at 28.5 h, 10 µM is 91.2%.

In the case of `Cc1c(C(=O)N2CCN(C3CCN(C)CC3)CC2)nnn1-c1cccc(C(F)(F)F)c1` [CBK149088], the viability at 28.5 h, 10 µM turned out to be 94.2%.

As to `CC(C)c1ccc(/C=C/C(=O)N2CCN(C3CCN(C)CC3)CC2)cc1` [CBK149094], the viability at 28.5 h, 10 µM stood at 105%.

Consider `CN1CCC(N2CCN(C(=O)c3ccc4c(c3)no[n+]4[O-])CC2)CC1` [CBK149095], for which the viability at 28.5 h, 10 µM was 92.6%.

Consider `CN1CCC(N2CCN(C(=O)C3(c4ccccc4)CCCC3)CC2)CC1` [CBK149096], for which the viability at 28.5 h, 10 µM turned out to be 99.3%.

For `CC(=O)c1c(C)[nH]c(C(=O)N2CCN(C3CCN(C)CC3)CC2)c1C` [CBK149098], the viability at 28.5 h, 10 µM is 104%.

With `COc1cc(CN2CCC[C@@H]2CN2CCCC2)cc(OC)c1OC` [CBK149100], the viability at 28.5 h, 10 µM was 105%.

As to `c1cncc(CN2CCC[C@@H]2CN2CCCC2)c1` [CBK149101C], the viability at 28.5 h, 10 µM was 99.3%.

Regarding `c1ccc2[nH]c(CN3CCC[C@@H]3CN3CCCC3)nc2c1` [CBK149102], the viability at 28.5 h, 10 µM is 85.9%.

For `c1ccc2c(CCN3CCC[C@@H]3CN3CCCC3)c[nH]c2c1` [CBK149104], the viability at 28.5 h, 10 µM came out at 87.4%.

As to `O=C(CN1CCC[C@@H]1CN1CCCC1)Nc1ncccn1` [CBK149107], the viability at 28.5 h, 10 µM was 103%.

For the molecule `c1ccc(C(CCN2CCC[C@@H]2CN2CCCC2)c2ccccc2)cc1` [CBK149109], the viability at 28.5 h, 10 µM is 89.7%.

For `O=C(c1ccc(F)cc1)C1CCN(Cc2cccnc2)CC1` [CBK149118], the viability at 28.5 h, 10 µM came out at 101%.

In the case of `Cc1cc(CN2CCC(C(=O)c3ccc(F)cc3)CC2)no1` [CBK149121], the viability at 28.5 h, 10 µM amounted to 89.2%.

As to `O=C(c1ccc(F)cc1)C1CCN(Cc2ccc3ccccc3c2)CC1` [CBK149122], the viability at 28.5 h, 10 µM worked out at 79.9%.

`O=C(c1ccc(F)cc1)C1CCN(C/C=C/c2ccccc2)CC1` [CBK149124]: the viability at 28.5 h, 10 µM came to 90.4%.

As for `O=C(c1ccc(F)cc1)C1CCN(CCc2c[nH]c3ccccc23)CC1` [CBK149125], the viability at 28.5 h, 10 µM stood at 96.3%.

With `O=C(CN1CCC(C(=O)c2ccc(F)cc2)CC1)Nc1ncccn1` [CBK149131], the viability at 28.5 h, 10 µM worked out at 95.7%.

`O=C(c1ccc(F)cc1)C1CCN(Cc2cc(=O)[nH]c(=O)[nH]2)CC1` [CBK149132]: the viability at 28.5 h, 10 µM came to 91.8%.

On to `O=C(c1ccc(F)cc1)C1CCN(CCC(c2ccccc2)c2ccccc2)CC1` [CBK149138], for which the viability at 28.5 h, 10 µM was found to be 92.3%.

On to `Cc1nc(CN2CCC(C(=O)c3ccc(F)cc3)CC2)cs1` [CBK149147], for which the viability at 28.5 h, 10 µM was determined as 103%.

With `Cc1ccc(NC(=O)c2nc(-c3ccc(C(=O)N4CCOCC4)cc3)cnc2N)c(O)c1` [CBK149152], the viability at 28.5 h, 10 µM is 44.3%.

Regarding `Nc1ncc(-c2ccc(C(=O)N3CCOCC3)cc2)nc1C(=O)NC1CCCCC1` [CBK149160], the viability at 28.5 h, 10 µM is 89.3%.

Take `COc1cccc(NC(=O)N2CCC(n3c(=O)n(C(=O)Nc4cccc(OC)c4)c4ccccc43)CC2)c1` [CBK149177]: the viability at 28.5 h, 10 µM was determined as 94.8%.

In the case of `CCOc1ccc(OC(=O)c2ccc3c(c2)OCO3)cc1` [CBK149205], the viability at 28.5 h, 10 µM was determined as 92.6%.

For the molecule `CCOc1ccc(OC(=O)c2ccc(OC(F)(F)F)cc2)cc1` [CBK149207], the viability at 28.5 h, 10 µM amounted to 95.8%.

Consider `COC(=O)c1ccc(-c2ccc(F)cc2OC)nc1` [CBK149230], for which the viability at 28.5 h, 10 µM turned out to be 88.3%.

Turning to `COC(=O)c1ccc(-c2ccc(Cl)c(Cl)c2)nc1` [CBK149231], the viability at 28.5 h, 10 µM amounted to 101%.
